Source: publication PMC3226499, “Environmental Impact on Vascular Development Predicted by High-Throughput Screening” (Environmental Health Perspectives, 2011)
Blank lines part the entries; values can stand above or below the compound they belong to.

What was measured:
uPAR = experiment: BioMAP protein readout: uPAR up- and down-regulation; type: cell-based, human; conditions: for uPAR up- and down-regulation LEC: lowest effective concentration
Text: (§1) Source data. […] Assays measured direct interactions between chemicals and molecular targets (receptors, enzymes), as well as downstream effects on reporter gene activity or cellular consequences. […] The perturbation scores are a method of aggregating assays into groups and providing a higher-level view of chemical activity across important signaling pathways.
(§2) Identifying pVDCs. Six assay targets emerged as most relevant to embryonic blood vessel formation based on biological plausibility and prevalence in the VasculoDB literature. These targets have been previously identified, based on murine knockout models or significant associations between biomarker data and adverse pregnancy effects, as critical to proper embryonic blood vessel formation or maternal–fetal placental circulation. In order of descending influence (with corresponding references highlighting their importance to vascular development), these were down-regulation of the receptor tyrosine kinase (RTK) VEGFR2 ([Drake et al. 2007]); inhibition of the enzymatic activity of TIE2, an angiogenic RTK ([Patan 1998]); down-regulation of the proangiogenic chemokine CCL2 ([Keeley et al. 2008]); perturbation of the plasminogen-activating system (PAS) controlling extracellular matrix breakdown via up- or down-regulation of plasminogen activator inhibitor type 1 (PAI-1/SERPINE1) ([Behzadian et al. 2003]); up-regulation of the proinflammatory antiangiogenic chemokine CXCL10 ([Romagnani et al. 2001]); and perturbation of the PAS via up- or down-regulation of urokinase-type plasminogen activator receptor (uPAR/PLAUR) ([D’Alessio and Blasi 2009]).
(§3) As predicted, thalidomide and 5HPP-33 were active across most of the pVDC signature assay targets. […] 5HPP-33 also had effects on uPAR in the endothelial cell system at 10 µM. […] Both compounds, however, fell above the mean VBS cutoff and would be classified as pVDCs based on in vitro activity for vascular targets identified by the ToxCast data and chemicals. […] Thus, our findings with reference compounds known to be antiangiogenic support the contention that VBS is an effective metric for vascular disruption.

[1] = tested on: human umbilical vein endothelial cell; set-up: method as in Noguchi et al. 2005; conditions: ref Noguchi et al. 2005; cited from earlier work
TIE2 = TIE2 (Homo sapiens, UniProt Q02763); experiment: TIE2 cell-free biochemical assay
Chain of TIE2 (Q02763 23-1124, species assumed): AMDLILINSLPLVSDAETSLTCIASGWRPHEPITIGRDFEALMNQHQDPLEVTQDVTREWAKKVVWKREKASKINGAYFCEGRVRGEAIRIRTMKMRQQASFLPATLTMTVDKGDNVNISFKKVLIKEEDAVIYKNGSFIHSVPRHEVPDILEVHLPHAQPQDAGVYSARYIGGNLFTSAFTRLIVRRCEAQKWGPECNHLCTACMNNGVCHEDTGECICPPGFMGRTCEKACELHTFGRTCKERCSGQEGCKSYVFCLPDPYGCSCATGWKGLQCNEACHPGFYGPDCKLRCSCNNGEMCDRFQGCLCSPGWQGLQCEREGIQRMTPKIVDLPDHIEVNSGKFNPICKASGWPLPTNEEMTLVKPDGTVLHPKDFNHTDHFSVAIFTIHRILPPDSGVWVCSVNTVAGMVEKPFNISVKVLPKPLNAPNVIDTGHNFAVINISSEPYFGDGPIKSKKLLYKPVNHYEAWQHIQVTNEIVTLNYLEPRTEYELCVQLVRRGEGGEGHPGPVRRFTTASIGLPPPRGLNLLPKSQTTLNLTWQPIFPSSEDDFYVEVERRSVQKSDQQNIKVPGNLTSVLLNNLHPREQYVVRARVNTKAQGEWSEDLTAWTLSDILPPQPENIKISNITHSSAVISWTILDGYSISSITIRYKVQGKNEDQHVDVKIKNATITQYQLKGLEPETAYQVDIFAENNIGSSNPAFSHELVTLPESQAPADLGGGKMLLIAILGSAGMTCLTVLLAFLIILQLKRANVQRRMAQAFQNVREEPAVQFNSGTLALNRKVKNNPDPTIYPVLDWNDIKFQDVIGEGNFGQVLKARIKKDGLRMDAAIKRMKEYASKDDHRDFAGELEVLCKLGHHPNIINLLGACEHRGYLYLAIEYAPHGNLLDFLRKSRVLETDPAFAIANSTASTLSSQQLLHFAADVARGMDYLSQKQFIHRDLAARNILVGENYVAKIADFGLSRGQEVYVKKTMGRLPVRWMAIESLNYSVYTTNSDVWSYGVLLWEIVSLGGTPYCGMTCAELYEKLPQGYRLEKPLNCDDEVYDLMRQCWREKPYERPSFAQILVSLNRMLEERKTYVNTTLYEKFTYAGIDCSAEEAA
Text: The chemical library was run against these assays, as was a repeat of the TIE2 assay from the original data series (Table 2).

CCL2 = experiment: BioMAP protein readout: CCL2 down-regulation; type: cell-based, human
Text: as §1, §2, §3

PAI-1 = experiment: BioMAP protein readout: PAI-1 up- and down-regulation; type: cell-based, human; conditions: for PAI-1 up- and down-regulation LEC: lowest effective concentration
Text: as §1, §2, §3

[2] = tested on: six prioritized vascular targets (VEGFR2, TIE2, CCL2, PAI-1, CXCL10, uPAR); experiment: Vascular bioactivity score (VBS): weighted sum of activity across 23 ToxCast assays; set-up: species or system human; conditions: for predicted vascular disruption from VBS rank: among all 311 compounds tested; for VBS: summed activity across 23 assays, 6 assay targets, reference antiangiogenic compounds
VEGFR2 = experiment: BioMAP protein readout: VEGFR2 down-regulation; type: cell-based, human; conditions: lowest effective concentration
Text: as §1
(§4) Identifying pVDCs. Six assay targets emerged as most relevant to embryonic blood vessel formation based on biological plausibility and prevalence in the VasculoDB literature. These targets have been previously identified, based on murine knockout models or significant associations between biomarker data and adverse pregnancy effects, as critical to proper embryonic blood vessel formation or maternal–fetal placental circulation. […]

CXCL10 = experiment: BioMAP protein readout: CXCL10 up-regulation; type: cell-based, human
Text: as §1, §4

[3] = tested on: placental vascular remodeling; conditions: rats; correlated with decreased expression of TIE2 mRNA; ref Ishimura et al. 2009; cited from earlier work
murine pregnancy = conditions: administered early or late in murine pregnancy, respectively; ref Rutland et al. 2005; cited from earlier work
[4] = tested on: VEGF expression and VEGFR2 phosphorylation; set-up: method as in Joussen et al. 2001; Satchi-Fainaro et al. 2005; conditions: ocular vasculature; ref Joussen et al. 2001; Satchi-Fainaro et al. 2005; cited from earlier work
[5] = coculture of peripheral blood mononuclear cells and endothelial cells

AC50 (TIE2): > 50 µM
Compound: CC(C)c1cccc(C(C)C)c1N1C(=O)c2ccc(O)cc2C1=O [5HPP-33, 5-hydroxy-2-(2,6-diisopropylphenyl)-1H-isoindole-1,3-dione]
uPAR up-regulation, effective concentration (uPAR; bronchial epithelial cells): 1.25 µM
effects on uPAR, effective concentration (uPAR; endothelial cell system): 10 µM
uPAR up- and down-regulation LEC (uPAR): 1.25 µM
inhibition of tube formation [1]: ~ 60%
AC50 in the TIE2 assay (in words) (TIE2): Neither compound affected the CXCL10 signal assay or produced an AC50 in the TIE2 assay
CCL2 down-regulation LEC (CCL2; [5]): 0.625 µM
CCL2 down-regulation LEC (CCL2; lowest effective concentration): 0.625 µM
PAI-1 down-regulation LEC (PAI-1; both fibroblasts and bronchial epithelial cells): 20 µM
PAI-1 up- and down-regulation LEC (PAI-1): 20 µM
predicted vascular disruption from VBS rank [2]: second highest VBS
VBS [2]: 6.61
VEGFR2 down-regulation LEC (VEGFR2): 20 µM
effect on CXCL10 signal assay (CXCL10): Neither compound affected

Compound: Clc1cc2c(cc1Cl)Oc1cc(Cl)c(Cl)cc1O2 [TCDD, 2,3,7,8-tetrachlorodibenzo-p-dioxin]
placental vascular remodeling [3]: suppressed

Compound: CO[C@@H]1[C@H](OC(=O)NC(=O)CCl)CC[C@]2(CO2)[C@H]1[C@@]1(C)O[C@@H]1CC=C(C)C [TNP-470, O-[chloroacetyl-carbamoyl]fumagillol]
pregnancy outcome (murine pregnancy): spontaneous resorption and intrauterine growth restriction
effect on VEGF expression and VEGFR2 phosphorylation [4]: significant decrease

AC50 (TIE2): > 50 µM
Compound: O=C1CCC(N2C(=O)c3ccccc3C2=O)C(=O)N1 (centres unmarked) [Thalidomide]
uPAR up-regulation, effective concentration (uPAR; endothelial cells): 2.5 µM
uPAR up- and down-regulation LEC (uPAR): 2.5 µM
inhibition of tube formation [1]: ~ 30%
AC50 in the TIE2 assay (in words) (TIE2): Neither compound affected the CXCL10 signal assay or produced an AC50 in the TIE2 assay
CCL2 down-regulation LEC (CCL2; [5]): 0.625 µM
CCL2 down-regulation LEC (CCL2; lowest effective concentration): 0.625 µM
PAI-1 up-regulation, effective concentration (PAI-1; fibroblasts): 40 µM
PAI-1 up- and down-regulation LEC (PAI-1): 40 µM
predicted vascular disruption from VBS rank [2]: moderate vascular disruptor
VBS [2]: 1.76
effect on CXCL10 signal assay (CXCL10): Neither compound affected
